Source: the supplement of paper PMC4862054
“And” between values parts separate entries of the source, which are not always exact repeats. Equal entries are not always repeated.

How the values were obtained:
Test in all cases: normalised viability (% of control), CellTiter-Blue; higher = more viable cells (about 100 = DMSO control)
Details in all cases: incubation time: 72 h
CAL-51 [1] = tested on: CAL-51
Description: (§1)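 DSRT, CellTiter-Blue viability, 72 h incubation. Signal is normalised to DMSO and benzethonium chloride controls. Value is the normalised response at dose 8.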

HDQ-P1 [2] = tested on: HDQ-P1
Description: as §1

DU-4475 [3] = tested on: DU-4475
Description: as §1

MDA-MB-453 [4] = tested on: MDA-MB-453
Description: as §1

CAL-85-1 [5] = tested on: CAL-85-1
Description: as §1

CAL-148 [6] = tested on: CAL-148
Description: as §1

CAL-51 [7] = tested on: CAL-51; remark: listed apart in the source
Description: (§2)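 DSRT, CellTiter-Blue viability, 72 h incubation. Signal is normalised to DMSO and benzethonium chloride controls. Value is the normalised response at dose 7.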

HDQ-P1 [8] = tested on: HDQ-P1; remark: listed apart in the source
Description: as §2

DU-4475 [9] = tested on: DU-4475; remark: listed apart in the source
Description: as §2

MDA-MB-453 [10] = tested on: MDA-MB-453; remark: listed apart in the source
Description: as §2

CAL-85-1 [11] = tested on: CAL-85-1; remark: listed apart in the source
Description: as §2

CAL-148 [12] = tested on: CAL-148; remark: listed apart in the source
Description: as §2

CAL-51 [13] = tested on: CAL-51; remark: listed apart in the source
Description: (§3)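 DSRT, CellTiter-Blue viability, 72 h incubation. Signal is normalised to DMSO and benzethonium chloride controls. Value is the normalised response at dose 6.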

HDQ-P1 [14] = tested on: HDQ-P1; remark: listed apart in the source
Description: as §3

DU-4475 [15] = tested on: DU-4475; remark: listed apart in the source
Description: as §3

MDA-MB-453 [16] = tested on: MDA-MB-453; remark: listed apart in the source
Description: as §3

CAL-85-1 [17] = tested on: CAL-85-1; remark: listed apart in the source
Description: as §3

CAL-148 [18] = tested on: CAL-148; remark: listed apart in the source
Description: as §3

SMILES	normalised viability (CAL-51 [1])	normalised viability (HDQ-P1 [2])	normalised viability (DU-4475 [3])	normalised viability (MDA-MB-453 [4])	normalised viability (CAL-85-1 [5])	normalised viability (CAL-148 [6])	other results
c1ccc2c(CCNc3ccc(Nc4ccncc4)cc3)c[nH]c2c1 [Serdemetan] (3000 nM)	88.5%	89%	79.5%	66.8%	67.1%	67%	–
Nc1cc(C(F)(F)F)c(-c2cc(N3CCOCC3)nc(N3CCOCC3)n2)cn1 [BKM-120] (1000 nM)	–	–	–	–	–	–	normalised viability (CAL-51 [7]): 56.9%; normalised viability (HDQ-P1 [8]): 63.2%; normalised viability (DU-4475 [9]): 92.9%; normalised viability (MDA-MB-453 [10]): 32.4%; normalised viability (CAL-85-1 [11]): 58.3%; normalised viability (CAL-148 [12]): 83.7%
COCC[n+]1c2c(n(Cc3cnccn3)c1C)C(=O)c1ccccc1C2=O [YM155] (3000 nM)	1.46%	0.93%	0.2%	2.38%	2.51%	2.73%	–
COC(=O)c1ccc2c(c1)NC(=O)/C2=C(\Nc1ccc(N(C)C(=O)CN2CCN(C)CC2)cc1)c1ccccc1 [BIBF 1120] (3000 nM)	62.7%	91%	97.1%	59.8%	91.1%	94.8%	–
S=P(N1CC1)(N1CC1)N1CC1 [Thio-TEPA] (10000 nM)	–	–	–	–	–	–	normalised viability (CAL-51 [7]): 89.6%; normalised viability (HDQ-P1 [8]): 113%; normalised viability (DU-4475 [9]): 96.6%; normalised viability (MDA-MB-453 [10]): 121%; normalised viability (CAL-85-1 [11]): 91.3%; normalised viability (CAL-148 [12]): 113%
Cc1cc(Nc2cc(CN3CCOCC3)c3nc(C)c(Cc4ccc(Cl)cc4F)n3n2)n[nH]1 (1000 nM)	–	–	–	–	–	–	normalised viability (CAL-51 [7]): 85.8%; normalised viability (HDQ-P1 [8]): 72.5%; normalised viability (DU-4475 [9]): 94%; normalised viability (MDA-MB-453 [10]): 53.3%; normalised viability (CAL-85-1 [11]): 86.5%; normalised viability (CAL-148 [12]): 94.6%
O=C(Nc1cccnc1)N1CCC(Cc2cccc(Oc3ccc(C(F)(F)F)cn3)c2)CC1 [PF-3845] (3000 nM)	93.2%	122%	93.9%	62.1%	93.9%	97.9%	–
CCc1c2c(nc3ccc(OC(=O)N4CCC(N5CCCCC5)CC4)cc13)-c1cc3c(c(=O)n1C2)COC(=O)[C@]3(O)CC [Irinotecan] (3000 nM)	49.9% and 64.2%	–	44.3% and 57.5%	73.3% and 90.7%	63.7% and 73.4%	28% and 42%	–
O=C(/C=C/c1cccc(S(=O)(=O)Nc2ccccc2)c1)NO [Belinostat] (3000 nM)	9.77%	39.1%	1.84%	2.18%	16.4%	3.16%	–
NC(=O)c1ccc(I)c([N+](=O)[O-])c1 [Iniparib] (3000 nM)	93.8%	93.9%	88.1%	85.1%	84.5%	97%	–
COc1cc2ncnc(Nc3ccc(F)c(Cl)c3)c2cc1OCCCN1CCOCC1 [Gefitinib] (3000 nM)	96.4% and 96.1%	77% and 86.2%	101%	79.3% and 69.5%	55.9% and 54%	76% and 67.1%	–
O=C(Nc1ccncc1)C(=O)c1cn(Cc2ccc(Cl)cc2)c2ccccc12 [Indibulin] (3000 nM)	25.5%	54.7%	22.6%	39.5%	39.7%	83.8%	–
COc1cc2/c(=N/c3ccc(Br)cc3F)nc[nH]c2cc1OCC1CCN(C)CC1 [Vandetanib] (3000 nM)	49.2%	27.5%	125%	72.3%	50.5%	77%	–
CO[C@H]1C[C@@H]2CC[C@@H](C)[C@@](O)(O2)C(=O)C(=O)N2CCCC[C@H]2C(=O)O[C@H]([C@H](C)C[C@@H]2CC[C@@H](OP(C)(C)=O)[C@H](OC)C2)CC(=O)[C@H](C)/C=C(\C)[C@@H](O)[C@@H](OC)C(=O)[C@H](C)C[C@H](C)/C=C/C=C/C=C/1C [Ridaforolimus] (300 nM)	35.5%	65.8%	51.7%	28.5%	55.4%	34.2%	–
CNC(=O)c1cc(Oc2ccc(NC(=O)Nc3ccc(Cl)c(C(F)(F)F)c3)c(F)c2)ccn1 [Regorafenib] (3000 nM)	69.5%	88.4%	67.6%	53.1%	86.6%	95.8%	–
COC(=O)c1ccc2c(c1)NC(=O)/C2=C(\Nc1ccc(N(C)C(=O)CN2CCN(C)CC2)cc1)c1ccccc1 [BIBF 1120] (1000 nM)	–	–	–	–	–	–	normalised viability (CAL-51 [7]): 68.2%; normalised viability (HDQ-P1 [8]): 119%; normalised viability (DU-4475 [9]): 96.8%; normalised viability (MDA-MB-453 [10]): 78.2%; normalised viability (CAL-85-1 [11]): 111%; normalised viability (CAL-148 [12]): 99%
Nc1cc(C(F)(F)F)c(-c2cc(N3CCOCC3)nc(N3CCOCC3)n2)cn1 [BKM-120] (3000 nM)	10.4%	27.7%	38%	11.9%	27.3%	18.8%	–
CN(C)CCOc1ccc(/C(=C(/CCCl)c2ccccc2)c2ccccc2)cc1 [Toremifene] (3000 nM)	95.8%	113%	101%	99.7%	109%	104%	–
Cc1[nH]c2ccccc2c1CCNCc1ccc(/C=C/C(=O)NO)cc1 [Panobinostat] (300 nM)	5.46%	23.1%	6.86%	1.93%	7.2%	1.12%	–
Oc1ccc2c(c1)CC[C@H](c1ccccc1)[C@@H]2c1ccc(OCCN2CCCC2)cc1 [Lasofoxifene] (30 nM)	–	–	–	–	–	–	normalised viability (CAL-51 [13]): 106%; normalised viability (HDQ-P1 [14]): 60.8%; normalised viability (DU-4475 [15]): 93%; normalised viability (MDA-MB-453 [16]): 116%; normalised viability (CAL-85-1 [17]): 100%; normalised viability (CAL-148 [18]): 116%
